Like-named read-outs stand apart in the source and are kept apart here.
How the values were obtained:
[1] = molecular target: human recombinant CK2 holoenzyme (Homo sapiens, UniProt P68400); test: CE-based CK2 activity assay (substrate peptide RRRDDDSDDD); assay type: biochemical
[2] = system: A427 cells; test: IncuCyte live-cell imaging, cell growth (confluence); assay type: cell-based, human; details: 48 h
[3] = system: MCF7 cells
[4] = system: MCF7 NucLight Green cells; test: IncuCyte live-cell imaging, cell growth (confluence); assay type: cell-based, human; details: 48 h
[5] = system: MCF7 cells; test: MTT cell viability assay; details: 100 µM, 48 h
[6] = system: A431 cells; test: IncuCyte live-cell imaging, cell growth (confluence); assay type: cell-based, human; details: 48 h
[7] = system: A431 cells; test: MTT cell viability assay; details: 48 h; for reduction of cell viability: 10 µM, data not shown
[8] = system: A427 cells; test: MTT cell viability assay; details: 48 h; for reduction of cell viability: 10 µM, data not shown
[9] = in vitro; details: human
[10] = system: MCF7 NucLight Green cells; test: EdU cell proliferation assay; assay type: cell-based, human; details: for proliferating cells relative to control: 24 h incubation
[11] = system: MCF7 cells; set-up: method as in PMID 30965682; details: other human CK2 inhibitor, compared with MCF7 value; cited from earlier work
[12] = molecular target: T1, LDH-5 from rabbit muscle (Oryctolagus cuniculus, UniProt P13491); test: LDH assay (NADH absorption at 340 nm); assay type: biochemical; details: 10 µM compound; data not shown
T1 construct: LDH-5 from rabbit muscle; purchased Roche Diagnostics GmbH, Mannheim, Germany; host or cells: rabbit muscle
Text: A reaction of aldehyde groups appearing at position 4´and 5´ of the phenylspirodrimanes such as acetoxystachybotrydial acetate (Figure 1) with amino acids in proteins has been reported before. The ATP dependency of the IC50 value as shown above is a clear indicator that the interaction between the compound and CK2 seems to be specific and is not due to any non-specific reaction of the dialdehydes of phenylspirodrimanes with amines in a protein. Finally, to rule out this aspect, the inhibitory effect of acetoxystachybotrydial acetate on lactate dehydrogenase (LDH) was determined. Even at a concentration of 10 µM, no inhibition of LDH by acetoxystachybotrydial acetate was observed, indicating no non-specific interaction of acetoxystachybotrydial acetate by coupling to protein amines (data not shown).
For the determination of enzymatic activity of lactate dehydrogenase (LDH), 0.25 µg of LDH-5 from rabbit muscle (Roche Diagnostics GmbH, Mannheim, Germany) was incubated in phosphate buffered saline (PBS) containing 0.25 mM nicotinamide adenine dinucleotide (NADH) and 0.625 mM pyruvate in a total volume of 1 mL at room temperature. Absorption at 340 nm was monitored every 5 s within 5 min. For the determination of inhibitory activity of phenylspirodrimanes towards LDH, acetoxystachybotrydial acetate was added in a final concentration of 10 µM; 0.1% DMSO served as a control.

[13] = MTT cell viability assay; details: human, cell viability (% of control)
[14] = nine concentrations 0.001-100 µM, mean ± SD, three independent experiments, read-out: IC50
[15] = read-out: % Inhibition at 10 µM
[16] = 10 µM compound, relative to DMSO control, read-out: % Inhibition at 10 µM

human recombinant CK2 holoenzyme, sequence (P68400 whole entry): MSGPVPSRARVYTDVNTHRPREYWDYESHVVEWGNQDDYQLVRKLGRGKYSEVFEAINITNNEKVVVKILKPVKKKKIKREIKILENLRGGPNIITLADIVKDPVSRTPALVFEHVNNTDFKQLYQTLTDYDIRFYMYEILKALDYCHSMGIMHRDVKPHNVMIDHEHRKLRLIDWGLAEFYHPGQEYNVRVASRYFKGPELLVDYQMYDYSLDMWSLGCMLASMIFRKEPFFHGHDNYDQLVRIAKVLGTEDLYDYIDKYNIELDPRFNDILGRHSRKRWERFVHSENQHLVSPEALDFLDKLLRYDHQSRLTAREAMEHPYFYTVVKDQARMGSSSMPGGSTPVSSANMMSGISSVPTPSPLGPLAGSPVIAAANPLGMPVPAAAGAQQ
human recombinant CK2 holoenzyme, sequence (P67870 whole entry partner): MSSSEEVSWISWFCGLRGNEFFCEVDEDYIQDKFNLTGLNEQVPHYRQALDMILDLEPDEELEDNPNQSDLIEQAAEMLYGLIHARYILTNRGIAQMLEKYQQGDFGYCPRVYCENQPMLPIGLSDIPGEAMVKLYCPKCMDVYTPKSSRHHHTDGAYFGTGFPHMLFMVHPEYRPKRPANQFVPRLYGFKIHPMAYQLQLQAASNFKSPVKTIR

CC(=O)O[C@@H]1CC[C@@]2(C)[C@@H](CC[C@@H](C)[C@]23Cc2c(O)cc(CO)c(C=O)c2O3)C1(C)C [Stachybotrysin B]
% Inhibition at 10 µM [1]: 50% | IC50 [1, 14]: 13400 nM | inhibition at 10 µM ([1]; read-out: % Inhibition at 10 µM, 10 µM compound, relative to DMSO control): > 50%

C[C@@H]1CC[C@H]2C(C)(C)[C@H](O)CC[C@]2(C)[C@@]12Cc1c(O)cc3c(c1O2)CN(CCO)C3=O [Stachybotryamide]
inhibition at 10 µM [1, 15]: 21%

CC(=O)O[C@@H]1CC[C@@]2(C)[C@@H](CC[C@@H](C)[C@]23Cc2c(O)cc4c(c2O3)CNC4=O)C1(C)C [Stachybotrylactam acetate]
inhibition at 10 µM [1, 15]: 44%

CC(=O)Oc1cc(O)c2c(c1C=O)O[C@@](C)(CC/C=C(\C)CCC=C(C)C)C=C2 [Stachybotrychromene B]
inhibition at 10 µM [1, 15]: 47%

CC(C)=CCC/C(C)=C/CC[C@@]1(C)C=Cc2c(O)cc(C)c(C=O)c2O1 [Stachybotrychromene A]
inhibition at 10 µM [1, 15]: 26%

CC(=O)O[C@@H]1[C@H](OC(C)=O)C[C@@]2(C)[C@@H](CC[C@@H](C)[C@]23Cc2c(O)cc(CO)c(C=O)c2O3)C1(C)C [Stachybonoid D]
inhibition at 10 µM [1, 16]: 47%

CC(=O)O[C@@H]1[C@H](O)C[C@@]2(C)[C@@H](CC[C@@H](C)[C@]23Cc2c(O)cc(CO)c(C=O)c2O3)C1(C)C [Stachybotrysin C]
inhibition at 10 µM [1, 15]: 37%

CC(=O)OC1CCC2(C)C(CCC(C)C23Cc2c(O)cc(C=O)c(C=O)c2O3)C1(C)C (centres unmarked) [Stachybotrydial acetate]
cell growth (confluence) ([2]; 1 µM): no effect | cell growth (confluence) ([2]; 100 µM): completely blocked | cell viability (% of control) ([3]; 1 µM): increased | cell growth (confluence) ([4]; 1 µM): no effect | cell growth (confluence) ([4]; 100 µM): completely blocked | reduction of cell viability (by %) [5]: 86% | cell growth (confluence) ([6]; 1 µM): no effect | cell growth (confluence) ([6]; 100 µM): completely blocked | reduction of cell viability [7]: not significant | reduction of cell viability (by %) ([7]; 100 µM): 93% | IC50 [1, 14]: 690 nM | reduction of cell viability [8]: not significant | reduction of cell viability (by %) ([8]; 100 µM): 82%

CC(C)=CCCC(C)=CCCC1(C)C=Cc2c(O)cc(C=O)c(C=O)c2O1 (centres unmarked) [Stachybotrychromene C]
cell growth (confluence) ([2]; 1 µM): no inhibition of growth | cell growth (confluence) ([2]; 100 µM): no other cell line was affected | cell viability (% of control) ([3]; 100 µM): not decreased | cell growth (confluence) ([4]; 1 µM): no inhibition of growth | cell growth (confluence) ([4]; 100 µM): reduce the growth | viability at 48 h, 1 µM [9]: 155% | cell growth (confluence) ([6]; 1 µM): no inhibition of growth | cell growth (confluence) ([6]; 100 µM): no other cell line was affected | reduction of cell viability (by %) ([7]; 1 µM): 27% | reduction of cell viability [7]: Almost no further reduction | increase of inhibitory effect on cell viability compared with 1 µM ([7]; 100 µM): ~10% | proliferating cells relative to control ([10]; 100 µM): negligible effects | IC50 [1, 14]: 320 nM | reduction of cell viability (by %) ([8]; 1 µM): 32% | reduction of cell viability [8]: Almost no further reduction | increase of inhibitory effect on cell viability compared with 1 µM ([8]; 100 µM): ~10%

Cc1cc(O)c2c(c1)C(=O)c1cc(O)cc(O)c1C2=O [emodin, reference compound]
proliferating cells relative to control ([10]; 1 µM): no effect | proliferating cells relative to control ([10]; 10 µM): 77% | proliferating cells relative to control ([10]; 100 µM): 5%

COC1=CC(=O)c2c(c(O)c3oc4cc(OC)cc(C)c4c(=O)c3c2O)C1=O [bikaverin]
EC50 [11]: 1970 nM

C[C@@H]1CC[C@H]2C(C)(C)[C@H](O)CC[C@]2(C)[C@@]12Cc1c(O)cc(C=O)c(C=O)c1O2 [Stachybotrydial]
IC50 [1, 14]: 4430 nM

C[C@@H]1CC[C@H]2C(C)(C)[C@H](O)CC[C@]2(C)[C@@]12Cc1c(O)cc(CO)c(C=O)c1O2 [L-671]
inhibition at 10 µM [1, 16]: 42%

CC(=O)OC1CC2(C)C(CCC(C)C23Cc2c(O)cc(C=O)c(C=O)c2O3)C(C)(C)C1OC(C)=O (centres unmarked) [Acetoxystachybotrydial acetate]
cell growth (confluence) ([2]; 1 µM): strongly impaired | cell growth (confluence) ([4]; 1 µM): completely blocked | total number of cells (phase contrast images) ([4]; 1 µM, compared with 1% DMSO control): strongly reduced | inhibition of LDH [12]: no inhibition | cell growth (confluence) ([6]; 1 µM): completely blocked | proliferating cells relative to control ([10]; 1 µM): Less than 1% | EC50 ([10]; Homo sapiens, MCF7, 24 h, read-out: EC50 inhibition of cell proliferation): 390 nM | IC50 [1]: 1860 nM | Ki [1]: 1410 nM | mode of inhibition [1]: ATP competitive mode of inhibition | viability at 48 h, 1 µM ([13]; 1 µM): 14% | viability at 48 h, 100 µM ([13]; 100 µM): 12%
